Results published in patent publication US8754217B2, “Nalmefene hydrochloride dihydrate” (H. Lundbeck A/S, priority 2008, dated 2014).
Counter-ions that a name gives are not always drawn.

Legend:
[1] = DVS (Dynamic Vapour Sorption) experiments, hygroscopicity; assay type: physicochemical
Method: As shown in Example 1 of the present invention, DVS (Dynamic Vapour Sorption) experiments were performed at 25° C. and at 40° C. […] In contrast hereto, as shown in Example 2, Nalmefene hydrochloride as monohydrate absorbed about 2.5% water when exposed to 95% RH and 40° C.
DVS experiments were performed at 25° C. and at 40° C. The dihydrate is retained at relative humidity of 10-95%. Adsorption to the surface at high relative humidity is less than 0.2%. Desorption of the crystal water occurs slowly under 10% RH.
DVS experiments were performed at 25° C. and at 40° C. The shape of the curves was the same, only the curve at 40° C. is shown (FIG. 5).
Most of the water of hydration (4%) was absorbed at 10% RH. […] The amounts here are given as % weigh increase relative to dry, thus the weight gain corresponding to monohydrate was 4.8% and a 1.5 hydrate corresponds to a gain of 7.2%.

[2] = Particle size by Laser Diffraction (Malvern Mastersizer S); assay type: physicochemical; details: Example 3 batch, mineral oil as dispergent
Method: In the present context, particle sizes are determined by Laser Diffraction using a Malvern Mastersizer S instrument as disclosed in details in the introductory part of the experimental section.
In the present context, particle sizes are determined by Laser Diffraction using a Malvern Mastersizer S instrument made up of a laser transmitter (LASER HELIUM-NEON-wavelength 632 nm), an optical system (300 F lens, range 0.5-900 μm), a measurement cell for suspension (beam length 2.4 mm) and a photodiode detector. The sample is analysed using mineral oil (CAS 8042-47) as dispergent.
The particle size of the so obtained Nalmefene hydrochloride dihydrate was determined by Laser Diffraction using a Malvern Mastersizer S instrument.

[3] = Brittain, Analytical Profiles of Drug Substances and Excipients (1996); cited from earlier work
[4] = Solubility in aqueous solutions; assay type: physicochemical
Excerpt: To recover any unused Nalmefene hydrochloride from the methods I or II, outlined above, a method for the recovery has been developed that comprises • (i) optionally, distillation of mother liquors obtained from method (I) or (II) • (ii) basification of the mother liquors obtained in step (i), or from the methods (I) or (II), • (iii) extracting the mixture with a suitable organic solvent, • (iv) adding hydrogen chloride, and • (v) isolating the formed solid

With `C=C1CC[C@@]2(O)[C@H]3Cc4ccc(O)c5c4[C@@]2(CCN3CC2CC2)[C@H]1O5` [Nalmefene hydrochloride dihydrate] the “relative humidity at which the hydrate is retained” value ([1]; DVS at 25° C. and 40° C.) was 10-95%, the “relative humidity under which desorption of the crystal water occurs slowly” value ([1]; DVS at 25° C. and 40° C.) was “under 10 % RH” and the “adsorption to the surface at high relative humidity” value ([1]; DVS at 25° C. and 40° C., high relative humidity) was “less than 0.2%”. For the same molecule, the “water absorbed at 95% RH” value ([1]; DVS at 25° C. and at 40° C., 95% RH) was “no water was absorbed”, the “rehydration after drying at 0% RH” value ([1]; DVS-curve, crystal lattice retained) was “complete rehydration” and the “hygroscopicity (in words)” value ([1]; hydrochloride dihydrate) was “non-hygroscopic”. The “particle size D10” value [2] was 14 μm, the “particle size D50” value [2] was 122 μm and the “particle size D90” value [2] was 287 μm.
In the case of `C=C1CC[C@@]2(O)[C@H]3Cc4ccc(O)c5c4[C@@]2(CCN3CC2CC2)[C@H]1O5` [Nalmefene hydrochloride monohydrate], the “water absorbed when exposed to 95% RH and 40° C.” value ([1]; 95% RH, 40° C.) is reported as “about 2.5%”, the “weight increase relative to dry at 10% RH” value ([1]; DVS, 10% RH) is reported as 4% and the “weight increase relative to dry at 50% RH” value ([1]; DVS, 50% RH) is reported as 4.3%. For the same molecule, the “weight increase relative to dry at 60% RH” value ([1]; DVS, 60% RH) was 6.9%, the “weight increase relative to dry at 95% RH” value ([1]; DVS, 95% RH) was 7.3% and the “RH above which the form changed into a new structure with higher water content” value ([1]; DVS, Example 2) was “above 50%”. The “hygroscopicity (in words)” value ([1]; listed as Nalmefene hydrochloride as a monohydrate, hydrochloride monohydrate) was “hygroscopic” and the adventitious moisture sorbed [3] was “up to 1%”.
For `C=C1CC[C@@]2(O)[C@H]3Cc4ccc(O)c5c4[C@@]2(CCN3CC2CC2)[C@H]1O5` [Nalmefene hydrochloride, 17-(cyclopropylmethyl)-4,5-α-epoxy-6-methylenemorphinan-3,14-diol hydrochloride], the “solubility in aqueous solutions such as water” value [4] was “highly soluble”.
